# Reference: US20190307818A1, “NOVEL ANTIMICROBIAL COMPOSITIONS AND METHODS OF USE” (priority 2016, published 2019)
# Tests used:
# LasR = biological target: T1, LasR (Pseudomonas aeruginosa, UniProt P25084); test: Two plasmid E. coli LasR reporter (luciferase); type: cell-based, P. aeruginosa; conditions: read-out: Percent Activity (LasR reporter)
# T1 construct: expressed in transfected cells; host or cells: E. coli TOP10 carrying pBAD-A 6xHIS-lasR and pCS26 plasB-luxCDABE
# Description: (§1) A two plasmid E. coli reporter system was constructed, in which LasR or RhlR was expressed under an arabinose inducible promoter (e.g., LasR or RhlR was cloned into a pBAD-A vector and expressed upon addition of arabinose) in the presence of a LasR-dependent or RhlR-dependent promoter fused to luciferase (e.g., cloned into a pCS26 vector). Upon the addition of arabinose and in the presence of AI, LasR or RhlR were expressed, formed a complex with the cognate AI, underwent dimerization, and activated transcription of the reporter construct. All potential inhibitors were tested at 100 μM. The percent activity was reported relative to wild-type (100%).
# A sample experimental protocol for the RhlR reporter (see, e.g., Table 5A2) or for the LasR reporter (see, e.g., Table 5A1).
# A clean plate was filled with water, 70% ethanol, LB, and primed with cultured cells to ensure that initial dispensing led to the appropriate volume of cells being added to the wells. 20 μL of this solution was dispensed into appropriate wells in a 384-well plate that contained small molecule antagonists. 20 μL of this solution was dispensed into wells intended for a positive control that contain only DMSO. To the culture that was saved for negative control, arabinose was added to 0.1%. An equal volume of DMSO was added to the culture, relative to the amount of AI added to the other culture. 20 μL of culture was dispensed into wells intended for a negative control that contained only DMSO and no small molecule QS inhibitors. Plates were incubated at 30° C. in the plate shaker. Plates were read using a 384 LUM/OD 600 setting on the plate reader after 4 hours of induction.
# For data analysis, the average and standard deviation for each of the control groups were determined. In a screen, for each data point, the number of standard deviations from the mean was determined to determine if the inhibitor was a “hit”. In a dose response curve, for each data point, the percent inhibition was determined: 1−(X/M), where X=single data point and M=is the mean of the AI only control group. The dose response curve was then plotted as a function of % inhibition (y) v. [inhibitor] on a log scale (x).
# LasR and RhlR = test: Receptor specific reporter assays for LasR and RhlR activity (stated in words); type: cell-based, P. aeruginosa
# Description: wherein R may be H or OH, and two or more of the R substituents of a given compound are OH; R′ is H or OH; and R″ is H or OH. […] A variety of compounds were obtained and tested for activity (e.g., inhibition of receptor specific reporter assays for LasR and RhlR activity).
# as §1
# [1] = tested on: P. aeruginosa PA14 ΔlasI ΔrhII CRISPR adaptation; test: CRISPR adaptation (new spacer integration by PCR); type: cell-based; conditions: ΔlasI ΔrhII strain; AIs 2 μM 3-O—C12-HSL+10 μM C4-HSL given together; Baicalein 100 μM with AIs; vs DMSO
# Protocol: FIG. 3. QS inhibitors block CRISPR adaptation and disable QS-mediated bacterial immunity. A P. aeruginosa PA14 ΔlasI ΔrhII QS deficient strain was transformed with foreign DNA (e.g., a CRISPR-targeted plasmid). A single colony from the transformation was re-streaked on selective media containing either DMSO (as a control), AIs (2 μM 3-O—C12-HSL+10 μM C4-HSL), or AIs and a QS inhibitor (2 μM 3-O—C12-HSL+10 μM C4-HSL+100 μM Baicalein). Single colonies were tested for integration of new inserted spacers (conferring immunity) against the CRISPR-targeted plasmid. In particular, PCR primers were designed to amplify specific genomic regions into which spacers were inserted. Primers complementary to the region upstream of the CRISPR region and to the second spacer region were designed, and PCR amplification was utilized to test for the presence of the newly inserted spacer (a process referred to as adaptation).
# A P. aeruginosa PA14 ΔlasI ΔrhII QS deficient strain was transformed with foreign DNA (e.g., a CRISPR-targeted plasmid such as pCR2SP1, as described above). A single colony from the transformation was re-streaked on selective medium, e.g., LB medium containing 50 μg/ml gentamicin and either DMSO (as a control), AIs (2 μM 3-O—C12-HSL+10 μM C4-HSL), or both AIs and a QS inhibitor (2 μM 3-O—C12-HSL+[…] C4-HSL+100 μM Baicalein QS inhibitor) and incubated at 37° C. O/N. Single colonies were tested for integration of new immunity spacers against the CRISPR-targeted plasmid by PCR using iProof High-Fidelity DNA Polymerase (Bio-Rad) and primers CR2SP check F+R upstream of the CRISPR2 region and in the second spacer. Thus, PCR primers were designed to amplify the genomic region in which the new spacer was present. Primers targeting a sequence upstream of the CRISPR-Cas region and targeting the second spacer region were designed, and PCR amplification was utilized to test for the presence of the new inserted spacer (a portion of the plasmid sequence inserted between the CRISPR locus and spacers). […]
# T1 sequence (P25084 whole entry): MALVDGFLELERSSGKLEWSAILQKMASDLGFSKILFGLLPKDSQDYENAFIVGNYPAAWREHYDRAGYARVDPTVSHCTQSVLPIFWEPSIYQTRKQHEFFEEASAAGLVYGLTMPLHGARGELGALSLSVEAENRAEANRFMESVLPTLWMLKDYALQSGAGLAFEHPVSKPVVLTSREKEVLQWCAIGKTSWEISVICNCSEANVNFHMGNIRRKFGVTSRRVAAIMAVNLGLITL
structure (smiles),measurement,setting,value
"O=c1cc(-c2ccccc2)oc2cc(O)c(O)c(O)c12 [Molecule 46, Baicalein]",remaining activity at 100 µM,LasR,46.7%
same,activity (inhibition of receptor specific reporter assays for LasR and RhlR activity),LasR and RhlR,inhibit both LasR and RhlR
same,CRISPR adaptation (fraction of cells in the colony that adapted),[1],blocked the positive effects of AIs on CRISPR adaptation
